# Assay: method code SF-HPLC, from DOI: 10.1023/a:1015933504191, PMID: 2122435
# Conditions: pH 7.4
row,logD,Structure (SMILES)
1,-1.3,CCOC(=O)n1cnc(C[C@H](NC(=O)[C@@H]2CCC(=O)N2)C(=O)N2CCC[C@H]2C(N)=O)c1
2,-0.44,CC(C)COC(=O)n1cnc(C[C@H](NC(=O)[C@@H]2CCC(=O)N2)C(=O)N2CCC[C@H]2C(N)=O)c1
3,-1.88,COC(=O)n1cnc(C[C@H](NC(=O)[C@@H]2CCC(=O)N2)C(=O)N2CCC[C@H]2C(N)=O)c1
4,0.6,NC(=O)[C@@H]1CCCN1C(=O)[C@H](Cc1cn(C(=O)OC2CCCCC2)cn1)NC(=O)[C@@H]1CCC(=O)N1
5,0.2,CCC(CC)OC(=O)n1cnc(C[C@H](NC(=O)[C@@H]2CCC(=O)N2)C(=O)N2CCC[C@H]2C(N)=O)c1
6,-0.47,CCCCOC(=O)n1cnc(C[C@H](NC(=O)[C@@H]2CCC(=O)N2)C(=O)N2CCC[C@H]2C(N)=O)c1
7,-0.8,CC(C)OC(=O)n1cnc(C[C@H](NC(=O)[C@@H]2CCC(=O)N2)C(=O)N2CCC[C@H]2C(N)=O)c1

# Continued, molecule first:
row,Structure (SMILES),logD
1,CCCC(CCC)OC(=O)n1cnc(C[C@H](NC(=O)[C@@H]2CCC(=O)N2)C(=O)N2CCC[C@H]2C(N)=O)c1,1.2
2,CCCCCCCCOC(=O)n1cnc(C[C@H](NC(=O)[C@@H]2CCC(=O)N2)C(=O)N2CCC[C@H]2C(N)=O)c1,1.88
3,NC(=O)[C@@H]1CCCN1C(=O)[C@H](Cc1cn(C(=O)OCc2ccccc2)cn1)NC(=O)[C@@H]1CCC(=O)N1,-0.11
4,CCCCC(CC)COC(=O)n1cnc(C[C@H](NC(=O)[C@@H]2CCC(=O)N2)C(=O)N2CCC[C@H]2C(N)=O)c1 (some centres not stated),1.82
5,CCCCCCOC(=O)n1cnc(C[C@H](NC(=O)[C@@H]2CCC(=O)N2)C(=O)N2CCC[C@H]2C(N)=O)c1,0.71
